Read-outs that look alike come from different tables or passages of the source.
Tests used:
[1] = target: T1, AAK1 (amino acids T27-A365) (Homo sapiens, UniProt Q2M2I8); experiment: AAK1 pSENs assay; assay type: biochemical
T1 construct: against AAK1 (amino acids T27-A365); 6His (N, cleaved yes)
Experimental: (§1) The recombinant proteins were independently expressed in Escherichia coli BL21(DE3) cells cultured in Luria-Bertani (LB) medium until OD600 reached 0.6-0.8, then cooled to 15° C. and supplemented with 0.5 mM isopropyl 1-thio-D-galactopyranoside (IPTG) induce protein expression 16 h. Cells were harvested and resuspended in lysis buffer (50 mM HEPES pH 7.5, 500 mM NaCl, 5 mM imidazole, 5% glycerol, 0.5 mM Tris (2-carboxyethyl) phosphine (TCEP), cOmplete Protease Inhibitor Tablet (Roche)) and lysed by microfludics high pressure homogenizer (UH-06, Union-Biotech). Proteins were purified using […] chromatography (His FF column, Bestchrom) and eluted stepwise in binding buffer with 20-300 mM imidazole. Removal of the hexahistidine tag was performed at 4° C. overnight using recombinant TEV protease and reacted with BirA to obtain the corresponding biotinylated-AAK1, BIKE or GAK proteins. Further separated in the reverse Strep column (Strep-Tactin® XT, IBA). The Biotin elution sample was collected containing untagged biotinylated protein was then purified by Ion-exchange chromatography (Mono Q 10/100 GL, Cytiva) and Size-exclusion chromatography (HiLoad 16/600 Superdex 200 pg, Cytiva). The pure protein was stored in a storage buffer 50 mM HEPES (pH 7.5), 300 mM NaCl, 5% glycerol at −80° C. Protein were characterized by SDS-PAGE, LC-MS and aSEC.
(§2) This example describes one illustrative method for determining the IC50 of the compounds of the present invention against AAK1 (amino acids T27-A365). AAK1 protein was dissolved at 20 nM in 1× enzyme solution (50 mM HEPES pH7.5, 10 mM MgCl2, 1 mM DTT, 1% glycerol, 0.5 mM EGTA, 0.01% Briji35, 0.02% BSA) and 12.5 ul was incubated with 250 nl DMSO or 250 nl compound in DMSO at 25° C. for 15 min. The reaction was started by addition of 12.5 ul of 30 uM AQT0759 (Assayquant, CSKS-AQT0759B) and 70 uM ATP which were diluted in 1× substrate dilution buffer (50 mM HEPES pH7.5, 10 mM MgCl2, 1 mM DTT, 1% glycerol, 0.5 mM EGTA, 0.01% Briji35).

AAK1 = AAK1 (Homo sapiens, UniProt Q2M2I8); experiment: pAP2M1 cell-based assay (in-cell Western)
Description: pAP2M1 Cell-Based Assay (in-Cell Western):
The plate was read on Licor Odyssey CLx imaging system (LICOR) to acquire fluorescence intensity at 700 channel and 800 channel.
Data analysis: Fluorescence intensity at 700 channel served as internal standard and 800 channel were normalized with 700 channel.

[2] = target: T2, BIKE (amino acids S38-E345) (K320A, K321A) (Homo sapiens, UniProt Q9NSY1, K320A/K321A); experiment: BIKE pSENs assay; assay type: biochemical; settings: class symbols; read-out: BIKE pSENs: IC50
T2 construct: against BIKE (amino acids S38-E345) (K320A, K321A); 6His (N, cleaved yes)
Experimental: as §1
as §2, with “BIKE” for “This example describes one illustrative method for determining the IC50 of the compounds of the present invention against AAK1 (amino acids T27-A365). AAK1”, “40” for “70”

[3] = class symbols, read-out: AAK1 pSENs: EIC50
[4] = Hela cells co-transfected with AP2M1 and AAK1, 3 hr treatment, class symbols, read-out: AAK1 In-cell Western: IC50

T1 sequence (Q2M2I8 27-365): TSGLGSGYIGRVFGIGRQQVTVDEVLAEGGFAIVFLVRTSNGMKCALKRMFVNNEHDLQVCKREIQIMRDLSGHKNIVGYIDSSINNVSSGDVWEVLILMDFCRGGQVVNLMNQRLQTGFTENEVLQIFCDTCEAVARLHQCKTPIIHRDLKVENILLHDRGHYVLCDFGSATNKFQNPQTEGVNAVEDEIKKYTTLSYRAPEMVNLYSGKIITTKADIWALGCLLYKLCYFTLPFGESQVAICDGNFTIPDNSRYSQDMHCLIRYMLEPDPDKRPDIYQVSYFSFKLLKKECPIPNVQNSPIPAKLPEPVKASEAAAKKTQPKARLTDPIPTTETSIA
AAK1, sequence (Q2M2I8 whole entry): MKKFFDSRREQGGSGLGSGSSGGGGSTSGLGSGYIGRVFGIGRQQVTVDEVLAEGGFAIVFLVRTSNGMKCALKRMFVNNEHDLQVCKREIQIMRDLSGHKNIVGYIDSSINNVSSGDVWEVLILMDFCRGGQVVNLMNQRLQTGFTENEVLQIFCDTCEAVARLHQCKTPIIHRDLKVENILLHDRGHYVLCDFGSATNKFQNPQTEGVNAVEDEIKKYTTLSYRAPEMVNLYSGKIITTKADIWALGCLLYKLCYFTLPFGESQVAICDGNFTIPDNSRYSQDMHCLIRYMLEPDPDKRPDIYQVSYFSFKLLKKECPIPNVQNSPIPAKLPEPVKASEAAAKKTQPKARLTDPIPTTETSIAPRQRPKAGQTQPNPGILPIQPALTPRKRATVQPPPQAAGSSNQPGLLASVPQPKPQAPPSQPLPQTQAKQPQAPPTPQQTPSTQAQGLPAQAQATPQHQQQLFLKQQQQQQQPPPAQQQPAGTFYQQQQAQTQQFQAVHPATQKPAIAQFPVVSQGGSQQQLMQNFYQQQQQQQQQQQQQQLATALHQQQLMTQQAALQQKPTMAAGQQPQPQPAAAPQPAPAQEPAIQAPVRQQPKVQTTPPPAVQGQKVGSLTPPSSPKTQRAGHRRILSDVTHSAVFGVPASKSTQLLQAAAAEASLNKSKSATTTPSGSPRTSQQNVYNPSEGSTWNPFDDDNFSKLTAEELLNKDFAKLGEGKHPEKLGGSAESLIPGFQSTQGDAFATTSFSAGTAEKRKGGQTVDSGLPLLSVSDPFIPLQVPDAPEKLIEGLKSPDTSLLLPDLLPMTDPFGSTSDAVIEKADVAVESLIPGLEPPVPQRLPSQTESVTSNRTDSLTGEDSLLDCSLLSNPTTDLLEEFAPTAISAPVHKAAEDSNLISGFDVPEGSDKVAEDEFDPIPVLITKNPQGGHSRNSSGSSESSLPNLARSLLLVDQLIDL
T2 sequence (Q9NSY1 38-345 K320A/K321A): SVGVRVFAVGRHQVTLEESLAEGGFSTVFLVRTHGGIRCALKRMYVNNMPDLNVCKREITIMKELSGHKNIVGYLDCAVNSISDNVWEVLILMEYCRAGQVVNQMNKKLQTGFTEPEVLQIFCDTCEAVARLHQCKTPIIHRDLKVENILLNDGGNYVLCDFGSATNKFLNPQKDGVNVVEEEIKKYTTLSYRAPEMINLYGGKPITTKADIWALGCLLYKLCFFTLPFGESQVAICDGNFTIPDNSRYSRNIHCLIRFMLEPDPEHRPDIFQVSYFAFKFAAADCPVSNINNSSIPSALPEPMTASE

Structure (SMILES)	IC50 [1, 3]	IC50 (AAK1; [4])	IC50 [2]	IC50 [1]	IC50 (AAK1)
COc1ccccc1-c1cnn2ccc(N3CCN(C(=O)O[C@H]4CO[C@H]5OCC[C@H]54)CC3)nc12 [Compound I-69, (3R,3aS,6aR)-hexahydrofuro[2,3-b]furan-3-yl 4-(3-(2-methoxyphenyl)pyrazolo[1,5-a]pyrimidin-5-yl)piperazine-1-carboxylate]	1 to 50 nM	501 to 1500 nM	151 to 500 nM		
COc1ncccc1-c1cnn2ccc(N3CCN(C(=O)O[C@H]4CO[C@H]5OCC[C@H]54)CC3)nc12 [Compound I-65, (3R,3aS,6aR)-hexahydrofuro[2,3-b]furan-3-yl 4-(3-(2-methoxypyridin-3-yl)pyrazolo[1,5-a]pyrimidin-5-yl)piperazine-1-carboxylate]	1 to 50 nM	151 to 500 nM	151 to 500 nM		
COC(=O)N1CC(Oc2ncccc2-c2cnn3ccc(N4CCN(C(=O)O[C@@H]5CNC(=O)C5)CC4)nc23)C1 [Compound I-58, [(3S)-5-oxopyrrolidin-3-yl]-4-[3-[2-(1-methoxycarbonylazetidin-3-yl)oxy-3-pyridyl]pyrazolo[1,5-a]pyrimidin-5-yl]piperazine-1-carboxylate]	1 to 50 nM	501 to 1500 nM	151 to 500 nM		
[2H]C([2H])([2H])N1C[C@@H](OC(=O)N2CCN(c3nc4c(-c5cccnc5OC5CC5)cnn4cc3F)CC2)CC1=O [Compound I-116, [(3S)-5-oxo-1-(trideuteriomethyl)pyrrolidin-3-yl]4-[3-[2-(cyclopropoxy)-3-pyridyl]-6-fluoro-pyrazolo[1,5-a]pyrimidin-5-yl]piperazine-1-carboxylate]	1 to 50 nM		51 to 150 nM		
COCCN1C[C@@H](OC(=O)N2CCN(c3ccn4ncc(-c5cc(F)cnc5OC5CC5)c4n3)CC2)CC1=O [Compound I-89]	1 to 50 nM	501 to 1500 nM	151 to 500 nM		
C[C@@H]1CN(c2ccn3ncc(-c4cccnc4OC4CC4)c3n2)CCN1C(=O)O[C@@H]1CNC(=O)C1 [Compound I-39, [(3S)-5-oxopyrrolidin-3-yl]-(2R)-4-[3-[2-(cyclopropoxy)-3-pyridyl]pyrazolo[1,5-a]pyrimidin-5-yl]-2-methyl-piperazine-1-carboxylate]	1 to 50 nM	501 to 1500 nM	151 to 500 nM		
CC(C)Oc1ncccc1-c1cnn2ccc(N3CCN(C(=O)O[C@@H]4CNC(=O)C4)CC3)nc12 [Compound I-26, [(3S)-5-Oxopyrrolidin-3-yl]-4-[3-(2-isopropoxy-3-pyridyl)pyrazolo[1,5-a]pyrimidin-5-yl]piperazine-1-carboxylate]	1 to 50 nM	501 to 1500 nM	501 to 1500 nM		
CC1(OC(=O)N2CCN(c3ccn4ncc(-c5cccnc5OC5COC5)c4n3)CC2)COC1 [Compound I-18, (3-Methyloxetan-3-yl)-4-[3-[2-(oxetan-3-yloxy)-3-pyridyl]pyrazolo[1,5-a]pyrimidin-5-yl]piperazine-1-carboxylate]	1 to 50 nM	151 to 500 nM	501 to 1500 nM		
CC(C)Oc1ncccc1-c1cnn2ccc(N3CCN(C(=O)OC4(C)COC4)CC3)nc12 [Compound I-1, (3-methyloxetan-3-yl)-4-[3-(2-isopropoxy-3-pyridyl)pyrazolo[1,5-a]pyrimidin-5-yl]piperazine-1-carboxylate]			501 to 1500 nM	51 to 150 nM	501 to 1500 nM
CN(CCNc1ccn2ncc(-c3cccnc3OC3CC3)c2n1)C(=O)O[C@@H]1CNC(=O)C1 [Compound I-60, [(3S)-5-oxopyrrolidin-3-yl]N-[2-[[3-[2-(cyclopropoxy)-3-pyridyl]pyrazolo[1,5-a]pyrimidin-5-yl]amino]ethyl]-N-methyl-carbamate]	51 to 150 nM	> 1500 nM	501 to 1500 nM		
CC(=O)N1CC(Oc2ncccc2-c2cnn3ccc(N4CCN(C(=O)O[C@@H]5CNC(=O)C5)CC4)nc23)C1 [Compound I-59, (S)-5-oxopyrrolidin-3-yl 4-(3-(2-((1-acetylazetidin-3-yl)oxy)pyridin-3-yl)pyrazolo[1,5-a]pyrimidin-5-yl)piperazine-1-carboxylate]	1 to 50 nM	> 1500 nM	501 to 1500 nM		
O=C1C[C@H](OC(=O)N2CCN(c3ccn4ncc(-c5cccnc5OC5CC5)c4n3)CC2)CN1CCO [Compound I-38, [(3S)-1-(2-Hydroxyethyl)-5-oxo-pyrrolidin-3-yl]-4-[3-[2-(cyclopropoxy)-3-pyridyl]pyrazolo[1,5-a]pyrimidin-5-yl]piperazine-1-carboxylate]	1 to 50 nM	> 1500 nM	151 to 500 nM		
CN1C[C@@H](OC(=O)N2CCN(c3nc4c(-c5cccnc5OC5CCOCC5)cnn4cc3F)CC2)CC1=O [Compound I-122, [(3S)-1-methyl-5-oxo-pyrrolidin-3-yl]4-[6-fluoro-3-(2-tetrahydropyran-4-yloxy-3-pyridyl)pyrazolo[1,5-a]pyrimidin-5-yl]piperazine-1-carboxylate]	51 to 150 nM	501 to 1500 nM	151 to 500 nM		
COCCN1C[C@@H](OC(=O)N2CCN(c3ccn4ncc(-c5cccnc5OC5CC5)c4n3)CC2)CC1=O [Compound I-115, [(3S)-1-(2-methoxyethyl)-5-oxo-pyrrolidin-3-yl]-4-[3-[2-(cyclopropoxy)-3-pyridyl]pyrazolo[1,5-a]pyrimidin-5-yl]piperazine-1-carboxylate]	1 to 50 nM	501 to 1500 nM	501 to 1500 nM		
CC(C)(C)OC(=O)N1CC(Oc2ncccc2-c2cnn3ccc(N4CCN(C(=O)O[C@@H]5CNC(=O)C5)CC4)nc23)C1 [Compound I-42]	1 to 50 nM	501 to 1500 nM	151 to 500 nM		
[2H]C([2H])([2H])N1C[C@@H](OC(=O)N2CCN(c3nc4c(-c5cc(F)cnc5OC5CC5)cnn4cc3F)CC2)CC1=O [Compound I-118, [(3S)-5-oxo-1-(trideuteriomethyl)pyrrolidin-3-yl]4-[3-[2-(cyclopropoxy)-5-fluoro-3-pyridyl]-6-fluoro-pyrazolo[1,5-a]pyrimidin-5-yl]piperazine-1-carboxylate]	1 to 50 nM		51 to 150 nM		
O=C1C[C@H](OC(=O)N2CCN(c3ccn4ncc(-c5cccnc5OC5COC5)c4n3)CC2)CN1 [Compound I-25, [(3S)-5-Oxopyrrolidin-3-yl]4-[3-[2-(oxetan-3-yloxy)-3-pyridyl]pyrazolo[1,5-a]pyrimidin-5-yl]piperazine-1-carboxylate]	1 to 50 nM	> 1500 nM	151 to 500 nM		
COC(=O)N1CC(Oc2ncccc2-c2cnn3ccc(NCCN(C)C(=O)OC(C)(C)C)nc23)C1 [Compound I-64, Methyl3-[[3-[5-[2-[tert-butoxycarbonyl(methyl)amino]ethylamino]pyrazolo[1,5-a]pyrimidin-3-yl]-2-pyridyl]oxy]azetidine-1-carboxylate]	1 to 50 nM	51 to 150 nM	51 to 150 nM		
CN(CCNc1ccn2ncc(-c3cccnc3OC3CN(C(=O)OC(C)(C)C)C3)c2n1)C(=O)OC(C)(C)C [Compound I-62, Tert-butyl3-[[3-[5-[2-[tert-butoxycarbonyl(methyl)amino]ethylamino]pyrazolo[1,5-a]pyrimidin-3-yl]-2-pyridyl]oxy]azetidine-1-carboxylate]	1 to 50 nM	> 1500 nM	151 to 500 nM		
